Read-outs that look alike come from different tables or passages of the source.
How the values were obtained:
[1] = Mouse pharmacokinetic test; format: in vivo, ICR mice; settings: plasma, po, 30 mg/kg, PO-30mpk; for Tmax: read-out: Tmax
Outline: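 Male naive ICR mice (25–30 g, n=3 per route) received a single intravenous or oral dose, with feeding resumed 4 h post-dose. Blood was centrifuged at 4°C, and plasma was stored at -80°C until analysis.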

22RV1 cells = experiment: Cell proliferation inhibition assay in 22RV1 cells (CellTiter-Glo, 7 days); format: cell-based, human; settings: Homo sapiens, 22Rv1, 168 h
Outline: (§1)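 LNCaP and 22RV1 human prostate cancer cells, 3000 per well, exposed to graded compound for 7 days at 37°C, 5% CO2; LNCaP got 0.2 nM DHT 1 h after compound. Viability by CellTiter-Glo luminescence; IC50 from four-parameter variable-slope fit.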

[2] = molecular target: T1, CYP3A4 (testosterone/midazolam) (Homo sapiens, UniProt P08684); experiment: CYP inhibition assay in human liver microsomes; format: in vitro ADME
T1 construct: co-incubated with human liver microsomes; from tissue; host or cells: human liver microsomes
T1 sequence (P08684 whole entry): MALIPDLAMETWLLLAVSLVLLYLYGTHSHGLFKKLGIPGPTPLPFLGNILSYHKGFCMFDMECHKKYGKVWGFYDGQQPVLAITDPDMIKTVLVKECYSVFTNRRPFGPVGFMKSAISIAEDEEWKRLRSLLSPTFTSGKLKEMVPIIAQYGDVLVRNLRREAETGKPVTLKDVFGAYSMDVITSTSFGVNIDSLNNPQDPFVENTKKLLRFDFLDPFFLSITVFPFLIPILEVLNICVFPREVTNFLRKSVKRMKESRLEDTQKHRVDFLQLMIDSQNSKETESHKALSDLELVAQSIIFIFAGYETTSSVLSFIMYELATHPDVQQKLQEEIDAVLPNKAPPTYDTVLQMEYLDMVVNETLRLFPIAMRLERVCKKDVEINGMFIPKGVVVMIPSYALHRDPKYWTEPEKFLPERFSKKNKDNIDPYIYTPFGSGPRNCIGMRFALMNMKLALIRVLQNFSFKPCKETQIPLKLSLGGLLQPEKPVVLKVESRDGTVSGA
Experimental: (§2) Test Example 3: CYP Inhibition Assay
(§3) An in vitro assay system was used to evaluate the effects of the compounds on the activities of several human liver microsomal cytochrome P450 (CYP) isozymes (CYP1A2, CYP2C9, CYP2D6, CYP3A4 (testosterone/midazolam), CYP2C19, and CYP2C8). Specific probe substrates for CYP450 isozymes were co-incubated with human liver microsomes and the compound at various concentrations (0, 0.0300, 0.100, 0.300, 1.00, 3.00, 10.0 µM). The reaction was initiated by adding the coenzyme NADPH. After the reaction was completed, the samples were processed, and the metabolites generated from the probe substrates were detected by liquid chromatography-tandem mass spectrometry (LC-MS/MS). Based on the resulting dose-response curves, the IC50 values of the test compounds for the probe substrate reactions catalyzed by each CYP isozyme were calculated.

CYP2C9 = molecular target: T2, CYP2C9 (Homo sapiens, UniProt P11712); experiment: CYP inhibition assay in human liver microsomes; format: in vitro ADME; settings: human liver microsomes, NADPH; read-out: CYPs 2C9 (IC50)
T2 construct: co-incubated with human liver microsomes; from tissue; host or cells: human liver microsomes
T2 sequence (P11712 whole entry): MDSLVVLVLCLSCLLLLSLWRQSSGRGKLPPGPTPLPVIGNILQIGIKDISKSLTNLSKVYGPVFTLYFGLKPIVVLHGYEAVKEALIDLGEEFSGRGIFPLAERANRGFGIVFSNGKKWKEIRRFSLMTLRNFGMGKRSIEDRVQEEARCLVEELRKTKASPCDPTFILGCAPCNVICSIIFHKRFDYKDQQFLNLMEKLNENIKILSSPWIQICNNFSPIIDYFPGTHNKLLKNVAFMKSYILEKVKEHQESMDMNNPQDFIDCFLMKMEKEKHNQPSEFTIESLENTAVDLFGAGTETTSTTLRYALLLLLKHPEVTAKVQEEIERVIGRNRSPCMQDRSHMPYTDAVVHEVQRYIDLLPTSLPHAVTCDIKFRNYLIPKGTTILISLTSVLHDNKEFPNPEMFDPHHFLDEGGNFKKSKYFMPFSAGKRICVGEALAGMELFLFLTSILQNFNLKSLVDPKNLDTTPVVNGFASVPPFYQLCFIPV
Experimental: as §2, §3

CYP2C19 = molecular target: T3, CYP2C19 (Homo sapiens, UniProt P33261); experiment: CYP inhibition assay in human liver microsomes; format: in vitro ADME; settings: human liver microsomes, NADPH; read-out: CYPs 2C19 (IC50)
T3 construct: co-incubated with human liver microsomes; from tissue; host or cells: human liver microsomes
T3 sequence (P33261 whole entry): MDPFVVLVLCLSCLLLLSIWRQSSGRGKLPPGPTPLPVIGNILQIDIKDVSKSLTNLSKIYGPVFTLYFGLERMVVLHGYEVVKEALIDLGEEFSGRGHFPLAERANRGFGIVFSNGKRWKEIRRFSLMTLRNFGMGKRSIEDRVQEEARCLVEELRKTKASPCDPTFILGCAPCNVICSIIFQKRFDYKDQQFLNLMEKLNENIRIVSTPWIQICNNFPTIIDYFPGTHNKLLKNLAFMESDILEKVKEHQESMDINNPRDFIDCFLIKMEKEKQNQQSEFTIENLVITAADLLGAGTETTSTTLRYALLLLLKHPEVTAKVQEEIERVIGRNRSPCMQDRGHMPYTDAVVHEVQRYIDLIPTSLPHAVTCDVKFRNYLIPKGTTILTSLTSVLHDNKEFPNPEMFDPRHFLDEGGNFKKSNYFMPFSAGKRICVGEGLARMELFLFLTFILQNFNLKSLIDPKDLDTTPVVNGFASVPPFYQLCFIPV
Experimental: as §2, §3

CYP2C8 = molecular target: T4, CYP2C8 (Homo sapiens, UniProt P10632); experiment: CYP inhibition assay in human liver microsomes; format: in vitro ADME; settings: human liver microsomes, NADPH; read-out: CYPs 2C8 (IC50)
T4 construct: co-incubated with human liver microsomes; from tissue; host or cells: human liver microsomes
T4 sequence (P10632 1-490): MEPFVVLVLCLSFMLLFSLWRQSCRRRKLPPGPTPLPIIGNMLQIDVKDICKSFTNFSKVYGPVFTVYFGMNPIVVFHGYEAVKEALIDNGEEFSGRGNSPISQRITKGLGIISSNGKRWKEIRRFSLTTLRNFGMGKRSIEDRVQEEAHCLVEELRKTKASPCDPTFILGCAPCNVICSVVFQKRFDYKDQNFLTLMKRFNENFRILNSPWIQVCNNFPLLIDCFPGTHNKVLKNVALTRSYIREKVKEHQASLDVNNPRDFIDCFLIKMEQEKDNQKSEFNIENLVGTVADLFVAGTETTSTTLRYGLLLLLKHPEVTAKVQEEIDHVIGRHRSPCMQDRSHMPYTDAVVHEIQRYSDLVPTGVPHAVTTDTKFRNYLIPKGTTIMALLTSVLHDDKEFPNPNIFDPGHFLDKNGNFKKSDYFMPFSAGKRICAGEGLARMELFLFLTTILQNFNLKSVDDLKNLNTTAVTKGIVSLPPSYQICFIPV
Experimental: as §2, §3

LNCaP cells = experiment: Cell proliferation inhibition assay in LNCaP cells (0.2 nM DHT, CellTiter-Glo, 7 days); format: cell-based, human; settings: Homo sapiens, LNCaP, 168 h
Outline: as §1

[3] = probe substrate midazolam, read-out: CYPs 3A4 (Midazolam) (IC50)
[4] = probe substrate testosterone, read-out: CYPs 3A4 (Testosterone) (IC50)

Row | Compound | AUC(0-inf) [1] [µg·h/mL] | Cmax [1] [ng/mL] | half-life [1] [h] | Tmax [1] [h] | IC50 (22RV1 cells) [µM] | IC50 [2, 3] [µM] | IC50 [2, 4] [µM] | IC50 (CYP2C9) [µM] | IC50 (CYP2C19) [µM] | IC50 (CYP2C8) [µM] | IC50 (LNCaP cells) [µM]
1 | CC(C)(c1ccc(-c2ccc(OCc3ccc(-c4cnc(P(C)(C)=O)nc4)nc3)cc2)cc1)c1cc(Cl)c(OCCCl)c(C#N)c1 [Compound 276] | 216 | 13200 | 9 | 4 | 0.11 | > 10 | > 10 | > 10 | > 10 | > 10 | 0.51
2 | CC(C)(c1ccc(-c2ccc(OCc3ccnc(N4CC5(CCS(=N)(=O)CC5)C4)n3)cc2)cc1)c1cc(Cl)c(OCCCl)c(C#N)c1 [Compound 289] | 240 | 10000 | 10.7 | 4 | 0.83 | > 10 | > 10 | > 10 | > 10 | > 10 | 
3 | CC(C)(c1ccc(-c2ccc(OCC34CC(c5cnc(P(C)(C)=O)nc5)(C3)C4)cc2)cc1)c1cc(Cl)c(OCCCl)c(C#N)c1 [Compound 320] |  |  |  |  | 0.079 | > 10 | > 10 | > 10 | > 10 | 9.1 | 0.26
4 | CC(C)(c1ccc(-c2ncc(OCc3ccnc(N4CC(S(C)(=O)=O)C4)n3)cn2)cc1)c1cc(Cl)c(OCCCl)c(C#N)c1 [Compound 379] |  |  |  |  | 0.68 | > 10 | > 10 | > 10 | > 10 | > 10 | 0.12
5 | CC(C)(c1ccc(-c2cnc(OCc3ccc(-c4ccc(P(C)(C)=O)nn4)cc3)cn2)cc1)c1cc(Cl)c(OCCCl)c(C#N)c1 [Compound 380] |  |  |  |  | 0.23 | > 10 | > 10 | > 10 | > 10 | > 10 | 0.15
6 | CC(C)(c1ccc(-c2cnc(OCc3ccc(-c4cnc(P(C)(C)=O)cn4)cc3)cn2)cc1)c1cc(Cl)c(OCCCl)c(C#N)c1 [Compound 381] |  |  |  |  | 0.35 | > 10 | > 10 | 5.8 | > 10 | > 10 | 0.11
7 | CC(C)(c1ccc(-c2cnc(OCc3ccnc(N4CC(S(=O)(=O)C5CC5)C4)n3)cn2)cc1)c1cc(Cl)c(OCCCl)c(C#N)c1 [Compound 387] |  |  |  |  | 0.22 | > 10 | > 10 | 1.9 | > 10 | > 10 | 0.05
8 | CC(C)(c1ccc(-c2cnc(OCc3ccnc(N4CC5(C4)CS(=N)(=O)C5)n3)cn2)cc1)c1cc(Cl)c(OCCCl)c(C#N)c1 [Compound 391] |  |  |  |  | 0.46 | > 10 | > 10 | 10 | > 10 | > 10 | 0.091
9 | CC(C)(c1ccc(-c2ncc(OCc3cnc(-c4cnc(P(C)(C)=O)nc4)cn3)cn2)cc1)c1cc(Cl)c(OCCCl)c(C#N)c1 [Compound 403] |  |  |  |  |  | > 10 | > 10 | > 10 | > 10 | 1.3 | 0.26
